Numbered stars: 1 amine (or outer) side, 2 acyl side, 3 side chain; on linkers, the order of the positions; unused ones are H or OH. Bridge positions count the residues as written; N and C are the ends. Square brackets hold non-standard residues; d marks the D form. Peptide text beside a SMILES is read from it. * marks the point of attachment. ξ: configuration not given here. X35 = CC1(C)C(=CC=CC=CC2=[N+](CCCCS(=O)(=O)[O-])c3ccccc3C2(C)C)N(CCCCCC(=O)N2CCN(Cc3cc(C[*:1])cc(C[*:2])c3)CC2)c2ccccc21; X11 = O=C(O)CN1CCN(CC(=O)O)CCN(C(CCC(=O)NCCSCc2cc(C[*:1])cc(C[*:2])c2)C(=O)O)CC1; X10 = O=C(O)CN1CCN(CC(=O)O)CCN(C(CCC(=O)NCCCOCCOCCOCCCN*)C(=O)O)CC1; Phe(4-Cl) = N[C@@H](Cc1ccc(Cl)cc1)C(=O)O; Phe(2-Cl) = N[C@@H](Cc1ccccc1Cl)C(=O)O; mXylylene = c1cc(C[*:1])cc(C[*:2])c1; NMeE = CN[C@@H](CCC(=O)O)C(=O)O; 2Thi = N[C@@H](Cc1cccs1)C(=O)O; Suc = O=C(CCC(=O)[*:2])[*:1]; Nle = CCCC[C@H](N)C(=O)O; Hexanoyl = CCCCCC(=O)*; ξC = NC(CS)C(=O)O
Assays:
[1] = target: T1, FAP-expressing human WI-38 fibroblasts (Homo sapiens, UniProt Q12884); assay: Competitive FACS binding assay
T1 construct: FAP-expressing human WI-38 fibroblasts (ECACC) were cultured in EMEM; host or cells: WI-38 human fibroblasts
T1 sequence (Q12884 whole entry): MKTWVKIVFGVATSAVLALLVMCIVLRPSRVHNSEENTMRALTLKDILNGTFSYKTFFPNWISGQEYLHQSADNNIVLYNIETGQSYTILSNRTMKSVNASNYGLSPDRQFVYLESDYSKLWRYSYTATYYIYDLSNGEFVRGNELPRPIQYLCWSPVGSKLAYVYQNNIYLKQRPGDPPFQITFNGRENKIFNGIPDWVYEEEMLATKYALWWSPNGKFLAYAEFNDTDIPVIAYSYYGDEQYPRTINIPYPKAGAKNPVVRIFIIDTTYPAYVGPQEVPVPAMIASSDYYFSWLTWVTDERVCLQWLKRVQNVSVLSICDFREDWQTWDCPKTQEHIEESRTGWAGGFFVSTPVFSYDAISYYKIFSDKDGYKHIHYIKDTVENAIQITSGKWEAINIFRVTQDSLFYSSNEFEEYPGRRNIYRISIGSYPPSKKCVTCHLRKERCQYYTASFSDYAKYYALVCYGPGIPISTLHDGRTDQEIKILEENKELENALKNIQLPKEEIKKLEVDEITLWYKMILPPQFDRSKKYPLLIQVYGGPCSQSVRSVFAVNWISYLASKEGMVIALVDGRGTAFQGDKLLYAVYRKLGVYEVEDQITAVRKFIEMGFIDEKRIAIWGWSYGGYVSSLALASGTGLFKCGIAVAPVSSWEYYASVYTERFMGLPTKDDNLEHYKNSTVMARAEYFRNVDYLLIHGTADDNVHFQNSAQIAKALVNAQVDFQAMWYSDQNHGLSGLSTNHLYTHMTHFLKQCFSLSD
Description: Cells were analyzed in an Attune NxT flow cytometer. […] […].
Cells were analyzed in an Attune NxT flow cytometer. […]

[2] = target: Human recombinant FAP (Homo sapiens, UniProt Q12884); assay: FRET-based FAP protease activity assay; type: biochemical; parameters: purchased R&D systems 3715-SE
Chain of Human recombinant FAP (Q12884 whole entry): as above

[3] = pIC50 Category (Activity), FRET-peptide substrate, 37° C.
[4] = pIC50 Category (Activity), FRET-based FAP protease activity assay, recombinant human FAP, 37° C.
[5] = pIC50 Category (activity), Recombinant human FAP

IC50 [1] [µM] | IC50 [2, 4] [µM] | Structure (SMILES) | IC50 [2, 5] [µM] | also measured
< 0.01 |  | CCCCNC(=O)N[C@H]1CSCc2cccc(c2)CSC[C@@H](C(=O)N[C@@H](CCCCNC(=O)C(CNCCN)CNCCN)CC(=O)O)NC(=O)[C@H](Cc2ccccc2)NC(=O)[C@H](CCC(N)=O)NC(=O)[C@H]([C@@H](C)O)NC(=O)[C@@H]2CCCN2C(=O)[C@@H]2CCCN2C1=O [3BP-4589, nBu-CAyl-[Cys(3MeBn)-Pro-Pro-Thr-Gln-Phe-Cys]-Bhk(N4Ac)—OH] |  | IC50 [2, 3]: < 0.01 µM
> 1 | > 1 | CCCCCC(=O)N[C@H]1CSCc2cccc(c2)CSC[C@@H](C(N)=O)NC(=O)[C@H](Cc2ccccc2)NC(=O)[C@H](CCC(=O)O)N(C)C(=O)[C@H]([C@@H](C)O)NC(=O)[C@@H]2CCCN2C(=O)[C@@H]2CCCN2C1=O [3BP-3357, Hex-[Cys(3MeBn)-Pro-Pro-Thr-Nme-Phe-Cys]-NH2] (Hexanoyl-CPPT[NMeE]FC-NH2; linker 1-7 via mXylylene) |  | 
0.1 to 0.794 | 0.01 to 0.0794 | CCCCCC(=O)N[C@H]1CSCc2cccc(c2)CSC[C@@H](C(N)=O)NC(=O)[C@H](Cc2ccccc2Cl)NC(=O)[C@H](CCC(=O)O)NC(=O)[C@H]([C@@H](C)O)NC(=O)[C@@H]2CCCN2C(=O)[C@@H]2CCCN2C1=O [3BP-3368, Hex-[Cys(3MeBn)-Pro-Pro-Thr-Glu-Ocf-Cys]-NH2] (Hexanoyl-CPPTE[Phe(2-Cl)]C-NH2; linker 1-7 via mXylylene) |  | 
0.01 to 0.0794 |  | CCCC[C@H](NC(=O)CCC(=O)NCCCOCCOCCOCCCNC(=O)CCC(C(=O)O)N1CCN(CC(=O)O)CCN(CC(=O)O)CC1)C(=O)N[C@H]1CSCc2cccc(c2)CSCC(C(N)=O)NC(=O)[C@H](Cc2ccccc2)NC(=O)[C@H](CCC(=O)O)NC(=O)[C@H]([C@@H](C)O)NC(=O)[C@@H]2CCCN2C(=O)[C@@H]2CCCN2C1=O (stereo partly drawn) [3BP-4743, NODAGA-Ttds-Nle-[Cys(3MeBn)-Pro-Pro-Thr-Glu-Phe-Cys]-NH2] ({X10-Suc}-[Nle]CPPTEF[ξC]-NH2; linker 2-8 via mXylylene) | 0.01 to 0.0794 | 
> 1 | > 1 | C[C@@H](O)[C@@H]1NC(=O)[C@@H]2CCCN2C(=O)[C@@H]2CCCN2C(=O)[C@@H](NC(=O)CCCN)CSCc2cccc(c2)CSC[C@@H](C(N)=O)NC(=O)[C@H](Cc2ccccc2)NC(=O)[C@H](CCC(N)=O)NC1=O [3BP-3761, H-Gab-[Cys(3MeBn)-Pro-Pro-Thr-Gln-Phe-Cys]-NH2] |  | 
0.1 to 0.794 | 0.1 to 0.794 | CCCCCC(=O)N[C@H]1CSCc2cccc(c2)CSC[C@@H](C(N)=O)NC(=O)[C@H](Cc2ccc(Cl)cc2)NC(=O)[C@H](CCC(=O)O)NC(=O)[C@H]([C@@H](C)O)NC(=O)[C@@H]2CCCN2C(=O)[C@@H]2CCCN2C1=O [3BP-3369, Hex-[Cys(3MeBn)-Pro-Pro-Thr-Glu-Pcf-Cys]-NH2] (Hexanoyl-CPPTE[Phe(4-Cl)]C-NH2; linker 1-7 via mXylylene) |  | 

The next lines start with the molecule.

Structure (SMILES) | IC50 [1] [µM] | IC50 [2, 4] [µM] | IC50 [2, 5] [µM] | also measured
CSCC[C@H](NC(C)=O)C(=O)N[C@H]1CSCc2cccc(c2)CSC[C@@H](C(=O)N[C@@H](CC(=O)O)C(=O)N[C@@H](Cc2c[nH]cn2)C(=O)N[C@@H](Cc2ccccc2)C(=O)N[C@@H](CCCNC(=N)N)C(=O)N[C@@H](CC(=O)O)C(N)=O)NC(=O)[C@H](Cc2cccs2)NC(=O)[C@H](CCC(=O)O)NC(=O)[C@H]([C@@H](C)O)NC(=O)[C@@H]2CCCN2C(=O)[C@@H]2CCCN2C1=O [3BP-3193, Ac-Met-[Cys(3MeBn)-Pro-Pro-Thr-Glu-Thi-Cys]-Asp-His-Phe-Arg-Asp-NH2] (Ac-MCPPTE[2Thi]CDHFRD-NH2; linker 2-8 via mXylylene) | < 0.01 | < 0.01 |  | 
CCCCCC(=O)N[C@H]1CSCc2cc(CSCCNC(=O)CCC(C(=O)O)N3CCN(CC(=O)O)CCN(CC(=O)O)CC3)cc(c2)CSCC(C(=O)O)NC(=O)[C@H](Cc2ccccc2)NC(=O)[C@H](CCC(=O)O)NC(=O)[C@H]([C@@H](C)O)NC(=O)[C@@H]2CCCN2C(=O)[C@@H]2CCCN2C1=O (stereo partly drawn) [3BP-4695, Hex-[Cys(tMeBn(NODAGA-AET))-Pro-Pro-Thr-Glu-Phe-Cys]-OH] (Hexanoyl-CPPTEF[ξC]-OH; linker 1-7 via X11) | 0.01 to 0.0794 |  | 0.01 to 0.0794 | 
CCCC[C@H](NC(=O)CCC(=O)NCCCOCCOCCOCCCNC(=O)[C@H](CCC(=O)NC[C@H](O)[C@@H](O)[C@H](O)[C@H](O)CO)NC(=O)[C@H](CCC(=O)NC[C@H](O)[C@@H](O)[C@H](O)[C@H](O)CO)NC(=O)C(CNCCN)CNCCN)C(=O)N[C@H]1CSCc2cccc(c2)CSC[C@@H](C(=O)O)NC(=O)[C@H](Cc2ccccc2)NC(=O)[C@H](CCC(N)=O)NC(=O)[C@H]([C@@H](C)O)NC(=O)[C@@H]2CCCN2C(=O)[C@@H]2CCCN2C1=O [3BP-4265, N4Ac-Glu(AGLU′)-Glu(AGLU′)-Ttds-Nle-[Cys-(3MeBn)-Pro-Pro-Thr-Gln-Phe-Cys]-OH] | 0.1 to 0.794 |  |  | IC50 [2, 3]: 0.01 to 0.0794 µM
CCCCCC(=O)N[C@H]1CSCc2cc(CSCCNC(=O)CCCCCN3C(=CC=CC=CC4=[N+](CCCCS(=O)(=O)[O-])c5ccccc5C4(C)C)C(C)(C)c4ccccc43)cc(c2)CSC[C@@H](C(=O)O)NC(=O)[C@H](Cc2ccccc2)NC(=O)[C@H](CCC(N)=O)NC(=O)[C@H]([C@@H](C)O)NC(=O)[C@@H]2CCCN2C(=O)[C@@H]2CCCN2C1=O [3BP-3694, Hex-[Cys(tMeBn(Cy5SO3-AET))-Pro-Pro-Thr-Gln-Phe-Cys]-OH] |  | 0.1 to 0.794 |  | 
CCCCCC(=O)N[C@H]1CSCc2cc(CSCCNC(=O)CCP(=O)(O)CN3CCN(CP(=O)(O)CO)CCN(CP(=O)(O)CO)CC3)cc(c2)CSCC(C(N)=O)NC(=O)[C@H](Cc2ccccc2)NC(=O)[C@H](CCC(N)=O)NC(=O)[C@H]([C@@H](C)O)NC(=O)[C@@H]2CCCN2C(=O)[C@@H]2CCCN2C1=O (stereo partly drawn) [3BP-4729, Hex-[Cys(tMeBn(NOPO-AET))-Pro-Pro-Thr-Gln-Phe-Cys]-NH2] | < 0.01 |  | < 0.01 | 
CCCCCC(=O)N[C@H]1CSCc2cc(CSCCNC(=O)COc3ccc4nc3CN(CC(=O)O)CCN(CC(=O)O)CCN(CC(=O)O)C4)cc(c2)CSCC(C(=O)O)NC(=O)[C@H](Cc2ccccc2)NC(=O)[C@H](CCC(N)=O)NC(=O)[C@H]([C@@H](C)O)NC(=O)[C@@H]2CCCN2C(=O)[C@@H]2CCCN2C1=O (stereo partly drawn) [3BP-5273, Hex-[Cys(tMeBn(AcPCTA-AET))-Pro-Pro-Thr-Gln-Phe-Cys]-OH] | < 0.01 |  | < 0.01 | 
CSCC[C@@H](NC(C)=O)C(=O)N[C@H]1CSCc2cc(CSCCNC(=O)CN3CCN(CC(=O)O)CCN(CC(=O)O)CCN(CC(=O)O)CC3)cc(c2)CSC[C@@H](C(=O)O)NC(=O)[C@H](Cc2ccccc2)NC(=O)[C@H](CCC(N)=O)NC(=O)[C@H]([C@@H](C)O)NC(=O)[C@@H]2CCCN2C(=O)[C@@H]2CCCN2C1=O [3BP-3682, Ac-met-[Cys(tMeBn(DOTA-AET))-Pro-Pro-Thr-Gln-Phe-Cys]-OH] | 0.01 to 0.0794 | 0.01 to 0.0794 |  | 
CCCCCC(=O)N[C@H]1CSCc2cc(CSCCNC(=O)CCC(=O)NCCCOCCOCCOCCCNC(=O)CCCCC3(N(C)CC(=O)O)CN(CC(=O)O)CCN(CC(=O)O)C3)cc(c2)CSC[C@@H](C(=O)O)NC(=O)[C@H](Cc2ccccc2)NC(=O)[C@H](CCC(N)=O)NC(=O)[C@H]([C@@H](C)O)NC(=O)[C@@H]2CCCN2C(=O)[C@@H]2CCCN2C1=O [3BP-4384, Hex-[Cys(tMeBn(DATA-Ttds-AET))-Pro-Pro-Thr-Gln-Phe-Cys]-OH] | 0.01 to 0.0794 |  | 0.01 to 0.0794 | pIC50 Category (FACS) ([1]; FAP-expressing human WI-38 fibroblasts): B (category B for pIC50 values between 7.1 and 8.0); IC50 [2, 3]: 0.01 to 0.0794 µM
CSCC[C@H](NC(C)=O)C(=O)N[C@@H]1CSCc2cccc(c2)CSC[C@@H](C(=O)N[C@@H](CC(=O)O)C(=O)N[C@@H](Cc2c[nH]cn2)C(=O)N[C@@H](Cc2ccccc2)C(=O)N[C@@H](CCCNC(=N)N)C(=O)N[C@@H](CC(=O)O)C(N)=O)NC(=O)[C@H](Cc2ccccc2)NC(=O)[C@H](CCC(=O)O)NC(=O)[C@H]([C@@H](C)O)NC(=O)[C@@H]2CCCN2C(=O)[C@@H]2CCCN2C1=O [3BP-3175, Ac-Met-[cys(3MeBn)-Pro-Pro-Thr-Glu-Phe-Cys]-Asp-His-Phe-Arg-Asp-NH2] (Ac-M[dC]PPTEFCDHFRD-NH2; linker 2-8 via mXylylene) | < 0.01 | < 0.01 |  | 
CCCCCC(=O)N[C@H]1CSCc2cc(CSCCNC(=O)CN3CCN(CC(N)=O)CCN(CC(N)=O)CCN(CC(N)=O)CC3)cc(c2)CSCC(C(=O)O)NC(=O)[C@H](Cc2ccccc2)NC(=O)[C@H](CCC(N)=O)NC(=O)[C@H]([C@@H](C)O)NC(=O)[C@@H]2CCCN2C(=O)[C@@H]2CCCN2C1=O (stereo partly drawn) [3BP-5323, Hex-[Cys(tMeBn(DOTAM-AET))-Pro-Pro-Thr-Gln-Phe-Cys]-OH] |  |  | < 0.01 | 
CCCCCC(=O)N[C@H]1CSCc2cc(CSCCNC(=O)COc3ccc4nc3CN(CC(=O)O)CCN(CC(=O)O)CCN(CC(=O)O)C4)cc(c2)CSC[C@@H](C(=O)O)NC(=O)[C@H](Cc2ccccc2)NC(=O)[C@H](CCC(N)=O)NC(=O)[C@H]([C@@H](C)O)NC(=O)[C@@H]2CCCN2C(=O)[C@@H]2CCCN2C1=O [3BP-5363, Hex-[C(tMeBn(LaAcPCTA-AET))-PPTQFC]-OH] |  |  |  | pIC50 Category (activity) ([2]; Recombinant human FAP): B (category B for pIC50 values between 7.1 and 8.0)
CCCCCC(=O)N[C@H]1CSCc2cc(cc(CN3CCN(C(=O)CCCCCN4C(=CC=CC=CC5=[N+](CCCCS(=O)(=O)[O-])c6ccccc6C5(C)C)C(C)(C)c5ccccc54)CC3)c2)CSC[C@@H](C(=O)N[C@@H](CC(=O)O)C(N)=O)NC(=O)[C@H](Cc2ccccc2)NC(=O)[C@H](CCC(N)=O)NC(=O)[C@H]([C@@H](C)O)NC(=O)[C@@H]2CCCN2C(=O)[C@@H]2CCCN2C1=O [3BP-3693, Hex-[Cys(tMeBn(Cy5SO3-PP))-Pro-Pro-Thr-Gln-Phe-Cys]-Asp-NH2] (Hexanoyl-CPPTQFCD-NH2; linker 1-7 via X35) |  | 0.01 to 0.0794 |  | 

Source: patent US20230212549A1, “COMPOUNDS COMPRISING A […] LIGAND AND USE THEREOF” (priority 2021, published 2023)
